Reference: patent publication US20060229305A1, “Tetrahydronaphthalene derivatives, process for their production and their use as anti-inflammatory agents” (priority 2005, published 2006)

Key:
[1] = biological target: T1, glucocorticoid receptor (GR) (Homo sapiens, UniProt P04150); assay: Binding to the glucocorticoid receptor, recombinant receptor in Sf9 cytosol, vs [3H]-dexamethasone; settings: cytosol of Sf9 cells, [3H]-dexamethasone as reference
T1 construct: made in house; host or cells: Sf9 cells infected with recombinant baculovirus (cytosol preparation)
T1 sequence (P04150 1-777): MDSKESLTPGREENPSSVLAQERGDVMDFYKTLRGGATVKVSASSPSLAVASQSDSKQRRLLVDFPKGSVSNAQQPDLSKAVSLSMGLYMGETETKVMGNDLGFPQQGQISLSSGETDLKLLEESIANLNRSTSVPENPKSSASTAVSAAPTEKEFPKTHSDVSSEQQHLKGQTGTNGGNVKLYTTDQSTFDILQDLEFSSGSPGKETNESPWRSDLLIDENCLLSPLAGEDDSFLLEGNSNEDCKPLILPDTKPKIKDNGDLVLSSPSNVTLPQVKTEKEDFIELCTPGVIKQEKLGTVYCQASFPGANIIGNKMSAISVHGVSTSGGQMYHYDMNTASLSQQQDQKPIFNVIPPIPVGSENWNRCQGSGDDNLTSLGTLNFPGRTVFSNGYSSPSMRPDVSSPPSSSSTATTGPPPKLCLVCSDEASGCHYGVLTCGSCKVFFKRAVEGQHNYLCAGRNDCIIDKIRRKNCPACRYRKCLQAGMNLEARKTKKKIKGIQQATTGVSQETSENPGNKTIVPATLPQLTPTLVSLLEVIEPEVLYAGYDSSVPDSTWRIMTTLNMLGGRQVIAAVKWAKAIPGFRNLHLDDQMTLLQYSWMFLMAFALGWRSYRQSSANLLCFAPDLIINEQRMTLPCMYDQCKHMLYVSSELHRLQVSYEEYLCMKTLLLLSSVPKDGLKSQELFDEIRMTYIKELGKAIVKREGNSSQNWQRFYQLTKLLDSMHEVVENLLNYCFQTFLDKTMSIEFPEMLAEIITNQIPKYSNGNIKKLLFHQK
Text: (§1) The binding of the substances to the glucocorticoid receptor (GR) and other steroid-hormone receptors (mineral corticoid receptor (MR), progesterone receptor (PR) and androgen receptor (AR)) is examined with the aid of recombinantly produced receptors. Cytosol preparations of Sf9 cells, which had been infected with recombinant baculoviruses that code for the GR, are used for the binding studies. In comparison to the reference substance [^3H]-dexamethasone, the substances show a high affinity to the GR.

[2] = tested on: cytokine IL-8 secretion, human monocyte cell line THP-1; assay: Inhibition of LPS-triggered IL-8 secretion in THP-1 cells (ELISA); type: cell-based
Method: The concentration of the cytokines was determined in the supernatant by means of commercially available ELISA kits.

[3] = biological target: T2, progesterone receptor (PR) (Homo sapiens, UniProt P06401); assay: Binding to the progesterone receptor, recombinantly produced receptor
T2 construct: made in house
T2 sequence (P06401 1-933): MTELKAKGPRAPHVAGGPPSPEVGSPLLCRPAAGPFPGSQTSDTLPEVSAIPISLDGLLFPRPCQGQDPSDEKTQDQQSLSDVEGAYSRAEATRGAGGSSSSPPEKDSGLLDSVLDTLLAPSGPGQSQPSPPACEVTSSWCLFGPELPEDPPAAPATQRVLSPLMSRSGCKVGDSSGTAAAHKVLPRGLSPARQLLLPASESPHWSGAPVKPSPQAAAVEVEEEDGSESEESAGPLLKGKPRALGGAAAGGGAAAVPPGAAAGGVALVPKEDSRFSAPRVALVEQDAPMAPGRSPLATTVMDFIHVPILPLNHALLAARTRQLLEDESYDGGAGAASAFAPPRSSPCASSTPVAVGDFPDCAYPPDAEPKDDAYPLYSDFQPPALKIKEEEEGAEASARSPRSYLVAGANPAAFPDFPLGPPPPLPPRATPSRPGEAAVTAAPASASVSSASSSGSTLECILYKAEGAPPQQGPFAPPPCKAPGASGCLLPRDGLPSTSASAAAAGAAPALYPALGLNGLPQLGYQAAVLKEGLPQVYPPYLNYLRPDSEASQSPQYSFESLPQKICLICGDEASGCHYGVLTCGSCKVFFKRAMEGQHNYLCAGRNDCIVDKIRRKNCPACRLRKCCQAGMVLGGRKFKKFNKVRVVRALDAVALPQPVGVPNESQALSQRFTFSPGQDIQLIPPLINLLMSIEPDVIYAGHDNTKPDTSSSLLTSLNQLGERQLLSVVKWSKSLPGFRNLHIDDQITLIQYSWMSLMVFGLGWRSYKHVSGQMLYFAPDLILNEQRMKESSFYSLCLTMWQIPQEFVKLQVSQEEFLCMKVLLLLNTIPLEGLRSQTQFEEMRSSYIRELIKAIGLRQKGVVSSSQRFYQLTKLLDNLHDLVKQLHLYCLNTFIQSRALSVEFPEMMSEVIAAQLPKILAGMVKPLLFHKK
Text: as §1

IC50 [1]: 36 nM
IC50 ([2]; Homo sapiens, LPS-triggered IL-8 secretion, THP-1, ELISA of supernatant, read-out: IC50(IL8)): 130 nM
IC50 [3]: > 1000 nM
Structure (SMILES): Cc1ncc2c(NC3c4ccc(F)c(O)c4C(C)C(C)C3(O)C(F)(F)F)cc(F)cc2n1 (racemic) [Example 3, 2-Fluoro-5-[(7-fluoro-2-methylquinazolin-5-yl)amino]-5,6,7,8-tetrahydro-7,8-dimethyl-6-(trifluoromethyl)naphthalene-1,6-diol]
efficiency relative to [3H]-dexamethasone as a standard ([2]; IL-8 inhibition, THP-1, LPS): 80%
